{"source": "paper PMC8371902", "about": "“Phase 1 study of M2698, a p70S6K/AKT dual inhibitor, in patients with advanced cancer” (Journal of Hematology & Oncology, 2021)", "test_system": "patients with advanced metastatic cancer", "excerpt": "In this phase 1 study, dose escalation was followed by expansion cohorts of once-daily, oral M2698 in continuous 21-day cycles. Primary objectives were to determine the maximum tolerated dose (MTD), dose-limiting toxicities (DLTs), and recommended phase 2 dose (RP2D). Secondary objectives were to assess safety and tolerability, pharmacokinetics (PK, including food effect) and antitumor activity. Pharmacodynamic biomarker assessments were exploratory. Treatment was discontinued if there was disease progression, toxicity or consent withdrawal.\nIn Part 1, M2698 monotherapy was investigated in a dose escalation with a food effect cohort. In Part 2, M2698 was investigated as monotherapy (expansion cohort) to further characterize safety, tolerability and pharmacokinetics, and assess antitumor activity in PAM + patients without confounding markers (exploratory).\nDose escalation analysis included all patients who experienced a DLT and those who received ≥ 80% of planned M2698 doses in cycle 1 without experiencing a DLT. Safety analysis included all patients who received ≥ 1 dose of M2698. PK analysis included all patients who received ≥ 1 dose of M2698 and had measurable plasma concentrations. Dose proportionality was tested using the power model (linear regression approach on the log -transformed scale).", "note": "Read-outs that look alike come from different tables or passages of the source."}
{"compound": "NC(=O)c1cccc2c(N[C@H](CN3CCC3)c3ccc(Cl)c(C(F)(F)F)c3)ncnc12", "note": "[M2698]", "values": [{"measurement": "M2698-related TEAE: Mucosal inflammation", "setting": "110 mg n=4", "result": 0}, {"measurement": "M2698-related TEAE: Nausea", "setting": "110 mg n=4", "result": 1}, {"measurement": "M2698-related TEAE: Nervous system disorders", "setting": "110 mg n=4", "result": 0}, {"measurement": "M2698-related TEAE: Nightmare", "setting": "110 mg n=4", "result": 0}, {"measurement": "M2698-related TEAE: Onychomadesis", "setting": "110 mg n=4", "result": 0}, {"measurement": "M2698-related TEAE: Paranoia", "setting": "110 mg n=4", "result": 0}, {"measurement": "M2698-related TEAE: Photosensitivity reaction", "setting": "110 mg n=4", "result": 0}, {"measurement": "M2698-related TEAE: Posterior reversible encephalopathy syndrome", "setting": "110 mg n=4", "result": 0}, {"measurement": "M2698-related TEAE: Pruritus generalised", "setting": "110 mg n=4", "result": 0}, {"measurement": "M2698-related TEAE: Psychiatric disorders", "setting": "110 mg n=4", "result": 0}, {"measurement": "M2698-related TEAE: Rash", "setting": "110 mg n=4", "result": 0}, {"measurement": "M2698-related TEAE: Rash maculo-papular", "setting": "110 mg n=4", "result": 0}, {"measurement": "M2698-related TEAE: Skin and subcutaneous tissue disorders", "setting": "110 mg n=4", "result": 0}, {"measurement": "M2698-related TEAE: Subjects with at least one event", "setting": "110 mg n=4", "result": 1}, {"measurement": "M2698-related TEAE: Transaminases increased", "setting": "110 mg n=4", "result": 0}, {"measurement": "M2698-related TEAE: Tremor", "setting": "110 mg n=4", "result": 0}, {"measurement": "M2698-related TEAE: Vision blurred", "setting": "110 mg n=4", "result": 0}, {"measurement": "M2698-related TEAE: Vomiting", "setting": "110 mg n=4", "result": 0}, {"measurement": "M2698-related TEAE: White blood cell count decreased", "setting": "110 mg n=4", "result": 0}, {"measurement": "M2698-related TEAE: Abnormal dreams", "setting": "160 mg n=6", "result": 1}, {"measurement": "M2698-related TEAE: Affect lability", "setting": "160 mg n=6", "result": 0}, {"measurement": "M2698-related TEAE: Alanine aminotransferase increased", "setting": "160 mg n=6", "result": 0}, {"measurement": "M2698-related TEAE: Amylase increased", "setting": "160 mg n=6", "result": 0}, {"measurement": "M2698-related TEAE: Anaemia", "setting": "160 mg n=6", "result": 0}, {"measurement": "M2698-related TEAE: Angina pectoris", "setting": "160 mg n=6", "result": 0}, {"measurement": "M2698-related TEAE: Anxiety", "setting": "160 mg n=6", "result": 0}, {"measurement": "M2698-related TEAE: Aphasia", "setting": "160 mg n=6", "result": 0}, {"measurement": "M2698-related TEAE: Ataxia", "setting": "160 mg n=6", "result": 0}, {"measurement": "M2698-related TEAE: Blood and lymphatic system disorders", "setting": "160 mg n=6", "result": 1}, {"measurement": "M2698-related TEAE: Blood creatine phosphokinase increased", "setting": "160 mg n=6", "result": 0}, {"measurement": "M2698-related TEAE: Blood creatinine increased", "setting": "160 mg n=6", "result": 0}, {"measurement": "M2698-related TEAE: Cardiac disorders", "setting": "160 mg n=6", "result": 0}, {"measurement": "M2698-related TEAE: Cognitive disorder", "setting": "160 mg n=6", "result": 0}, {"measurement": "M2698-related TEAE: Constipation", "setting": "160 mg n=6", "result": 0}, {"measurement": "M2698-related TEAE: Decreased appetite", "setting": "160 mg n=6", "result": 0}, {"measurement": "M2698-related TEAE: Delusion", "setting": "160 mg n=6", "result": 0}, {"measurement": "M2698-related TEAE: Depression", "setting": "160 mg n=6", "result": 0}, {"measurement": "M2698-related TEAE: Diarrhoea", "setting": "160 mg n=6", "result": 0}, {"measurement": "M2698-related TEAE: Diarrhoea haemorrhagic", "setting": "160 mg n=6", "result": 0}, {"measurement": "M2698-related TEAE: Dizziness", "setting": "160 mg n=6", "result": 0}, {"measurement": "M2698-related TEAE: Dry eye", "setting": "160 mg n=6", "result": 1}, {"measurement": "M2698-related TEAE: Dry mouth", "setting": "160 mg n=6", "result": 1}, {"measurement": "M2698-related TEAE: Dysgeusia", "setting": "160 mg n=6", "result": 1}, {"measurement": "M2698-related TEAE: Dyspepsia", "setting": "160 mg n=6", "result": 0}, {"measurement": "M2698-related TEAE: Dysphagia", "setting": "160 mg n=6", "result": 1}, {"measurement": "M2698-related TEAE: Energy increased", "setting": "160 mg n=6", "result": 1}, {"measurement": "M2698-related TEAE: Erythema", "setting": "160 mg n=6", "result": 1}, {"measurement": "M2698-related TEAE: Euphoric mood", "setting": "160 mg n=6", "result": 1}, {"measurement": "M2698-related TEAE: Eye disorders", "setting": "160 mg n=6", "result": 1}, {"measurement": "M2698-related TEAE: Fatigue", "setting": "160 mg n=6", "result": 0}, {"measurement": "M2698-related TEAE: Gamma-glutamyltransferase increased", "setting": "160 mg n=6", "result": 1}, {"measurement": "M2698-related TEAE: Gastrointestinal disorders", "setting": "160 mg n=6", "result": 1}, {"measurement": "M2698-related TEAE: Gastrooesophageal reflux disease", "setting": "160 mg n=6", "result": 0}, {"measurement": "M2698-related TEAE: General disorders and administration site conditions", "setting": "160 mg n=6", "result": 1}, {"measurement": "M2698-related TEAE: Headache", "setting": "160 mg n=6", "result": 0}, {"measurement": "M2698-related TEAE: Hyperhidrosis", "setting": "160 mg n=6", "result": 0}, {"measurement": "M2698-related TEAE: Hypokalaemia", "setting": "160 mg n=6", "result": 0}, {"measurement": "M2698-related TEAE: Hypomagnesaemia", "setting": "160 mg n=6", "result": 0}, {"measurement": "M2698-related TEAE: Insomnia", "setting": "160 mg n=6", "result": 1}, {"measurement": "M2698-related TEAE: Investigations", "setting": "160 mg n=6", "result": 3}, {"measurement": "M2698-related TEAE: Lipase increased", "setting": "160 mg n=6", "result": 0}, {"measurement": "M2698-related TEAE: Lymphopenia", "setting": "160 mg n=6", "result": 1}, {"measurement": "M2698-related TEAE: Metabolism and nutrition disorders", "setting": "160 mg n=6", "result": 0}, {"measurement": "M2698-related TEAE: Mucosal inflammation", "setting": "160 mg n=6", "result": 0}, {"measurement": "M2698-related TEAE: Nausea", "setting": "160 mg n=6", "result": 0}, {"measurement": "M2698-related TEAE: Nervous system disorders", "setting": "160 mg n=6", "result": 1}, {"measurement": "M2698-related TEAE: Nightmare", "setting": "160 mg n=6", "result": 0}, {"measurement": "M2698-related TEAE: Onychomadesis", "setting": "160 mg n=6", "result": 0}, {"measurement": "M2698-related TEAE: Paranoia", "setting": "160 mg n=6", "result": 0}, {"measurement": "M2698-related TEAE: Photosensitivity reaction", "setting": "160 mg n=6", "result": 0}, {"measurement": "M2698-related TEAE: Posterior reversible encephalopathy syndrome", "setting": "160 mg n=6", "result": 0}, {"measurement": "M2698-related TEAE: Pruritus generalised", "setting": "160 mg n=6", "result": 0}, {"measurement": "M2698-related TEAE: Psychiatric disorders", "setting": "160 mg n=6", "result": 2}, {"measurement": "M2698-related TEAE: Rash", "setting": "160 mg n=6", "result": 1}, {"measurement": "M2698-related TEAE: Rash maculo-papular", "setting": "160 mg n=6", "result": 0}, {"measurement": "M2698-related TEAE: Skin and subcutaneous tissue disorders", "setting": "160 mg n=6", "result": 2}, {"measurement": "M2698-related TEAE: Subjects with at least one event", "setting": "160 mg n=6", "result": 4}, {"measurement": "M2698-related TEAE: Transaminases increased", "setting": "160 mg n=6", "result": 1}, {"measurement": "M2698-related TEAE: Tremor", "setting": "160 mg n=6", "result": 0}, {"measurement": "M2698-related TEAE: Vision blurred", "setting": "160 mg n=6", "result": 0}, {"measurement": "M2698-related TEAE: Vomiting", "setting": "160 mg n=6", "result": 0}, {"measurement": "M2698-related TEAE: White blood cell count decreased", "setting": "160 mg n=6", "result": 1}, {"measurement": "DLT observed", "setting": "160 mg, n = 1", "result": "grade 3 increase in gamma-glutamyltransferase"}, {"measurement": "M2698-related TEAE: Abnormal dreams", "setting": "200 mg n=3", "result": 0}, {"measurement": "M2698-related TEAE: Affect lability", "setting": "200 mg n=3", "result": 0}, {"measurement": "M2698-related TEAE: Alanine aminotransferase increased", "setting": "200 mg n=3", "result": 0}, {"measurement": "M2698-related TEAE: Amylase increased", "setting": "200 mg n=3", "result": 0}, {"measurement": "M2698-related TEAE: Anaemia", "setting": "200 mg n=3", "result": 1}, {"measurement": "M2698-related TEAE: Angina pectoris", "setting": "200 mg n=3", "result": 0}, {"measurement": "M2698-related TEAE: Anxiety", "setting": "200 mg n=3", "result": 0}, {"measurement": "M2698-related TEAE: Aphasia", "setting": "200 mg n=3", "result": 0}, {"measurement": "M2698-related TEAE: Ataxia", "setting": "200 mg n=3", "result": 0}, {"measurement": "M2698-related TEAE: Blood and lymphatic system disorders", "setting": "200 mg n=3", "result": 1}, {"measurement": "M2698-related TEAE: Blood creatine phosphokinase increased", "setting": "200 mg n=3", "result": 0}, {"measurement": "M2698-related TEAE: Blood creatinine increased", "setting": "200 mg n=3", "result": 0}, {"measurement": "M2698-related TEAE: Cardiac disorders", "setting": "200 mg n=3", "result": 0}, {"measurement": "M2698-related TEAE: Cognitive disorder", "setting": "200 mg n=3", "result": 0}, {"measurement": "M2698-related TEAE: Constipation", "setting": "200 mg n=3", "result": 0}, {"measurement": "M2698-related TEAE: Decreased appetite", "setting": "200 mg n=3", "result": 1}]}
